Tested on: Gaeumannomyces graminis var. tritici (Ggt)
Test: In vitro Assay: mycelial growth of Ggt on minimal media agar plates containing test compound
Format: cell-based
Conditions: dark, 19-20° C., 4 to 5 days, diameter of mycelial growth; for inhibition at 0.1 ppm / inhibition at 1 ppm / inhibition at 10 ppm: Gaeumannomyces graminis; for inhibition at 0.1 ppm: read-out: In vitro (ppm) 0.1, Percent Inhibition; for inhibition at 1 ppm: read-out: In vitro (ppm) 1, Percent Inhibition; for inhibition at 10 ppm: read-out: In vitro (ppm) 10, Percent Inhibition
Procedure: The test compounds (0.25 mL of an appropriate stock solution in acetone) are incorporated into 25 mL minimal media agar [(prepared by autoclaving a solution of 17.5 g Czapek Dox broth (Difco), 7.5 g purified agar or Bacto-agar (Difco), and 500 mL distilled/deionized water, and then adding 50 μL of 1 mg/mL thiamine hydrochloride and 50 μL of 1 mg/mL biotin in 5% ethanol] and plates are prepared.
Each plate is inoculated by placing in a triangular shape three 4-mm plugs of Gaeumannomyces graminis var. tritici (Ggt) grown on the minimal media agar described above. The plates are incubated in the dark at 19-20° C. for 4 to 5 days. The growth of the fungus is measured as the diameter of the mycelial growth. The result is expressed as Percent Inhibition, calculated as [1-[(mm growth on treated plate −4)/(mm growth on control plate −4)]]×100.

C[Si](C)(C)c1cccc(Cl)c1C(=O)NCc1ccc(C(F)(F)F)cc1 [Example 102, 2-Chloro-N-[[4-(trifluoromethyl)phenyl]-methyl]-6-(trimethylsilyl)-benzamide]
inhibition at 0.1 ppm (0.1 ppm in minimal media agar): 28%
inhibition at 1 ppm (1 ppm in minimal media agar): 52%
inhibition at 10 ppm (10 ppm in minimal media agar): 28%

CCN(CC=CC#CC(C)(C)C)C(=O)c1c(Cl)cccc1[Si](C)(C)C [Example 104, 2-Chloro-N-(6,6-dimethyl-2-hepten-4-ynyl)-N-ethyl-6-(trimethylsilyl)benzamide]
inhibition at 0.1 ppm (0.1 ppm in minimal media agar): < 0%
inhibition at 1 ppm (1 ppm in minimal media agar): 26%
inhibition at 10 ppm (10 ppm in minimal media agar): 71%

CN(CC=Cc1ccccc1)C(=O)c1c(Cl)cccc1[Si](C)(C)C [Example 105, 2-Chloro-N-methyl-N-(3-phenyl-2-propenyl)-6-(trimethylsilyl)benzamide]
inhibition at 0.1 ppm (0.1 ppm in minimal media agar): 3%
inhibition at 1 ppm (1 ppm in minimal media agar): 37%
inhibition at 10 ppm (10 ppm in minimal media agar): 84%

C#CC(C)(C)NC(=O)c1c(Cl)cccc1[Si](C)(C)C [Example 107, 2-Chloro-N-(1,1-dimethyl-2-propynyl)-6-(trimethylsilyl)benzamide]
inhibition at 0.1 ppm (0.1 ppm in minimal media agar): < 0%
inhibition at 1 ppm (1 ppm in minimal media agar): < 0%
inhibition at 10 ppm (10 ppm in minimal media agar): 24%

C#CCNC(=O)c1c(Cl)cccc1[Si](C)(C)C [Example 108, 2-Chloro-N-(2-propynyl)-6-(trimethylsilyl)benzamide]
inhibition at 0.1 ppm (0.1 ppm in minimal media agar): 90%
inhibition at 1 ppm (1 ppm in minimal media agar): 86%
inhibition at 10 ppm (10 ppm in minimal media agar): 97%

CCOC(=O)Nc1c(Cl)cccc1[Si](C)(C)C [Example 109, [2-Chloro-6-(trimethylsilyl)phenyl]carbamic acid, ethyl ester]
inhibition at 0.1 ppm (0.1 ppm in minimal media agar): 10%
inhibition at 1 ppm (1 ppm in minimal media agar): 10%
inhibition at 10 ppm (10 ppm in minimal media agar): 83%

CCNC(=O)Nc1c(Cl)cccc1[Si](C)(C)C [Example 110, N-[2-Chloro-6-(trimethylsilyl)phenyl]-N′-ethylurea]
inhibition at 0.1 ppm (0.1 ppm in minimal media agar): 7%
inhibition at 1 ppm (1 ppm in minimal media agar): 17%
inhibition at 10 ppm (10 ppm in minimal media agar): 45%

C/C=C\NC(=O)c1c(Cl)cccc1[Si](C)(C)C [Example 112, (Z)-2-Chloro-N-1-propenyl-6-(trimethylsilyl)benzamide]
inhibition at 0.1 ppm (0.1 ppm in minimal media agar): 81%
inhibition at 1 ppm (1 ppm in minimal media agar): 96%
inhibition at 10 ppm (10 ppm in minimal media agar): 100%

C/C=C/NC(=O)c1c(Cl)cccc1[Si](C)(C)C [Example 113, (E)-2-Chloro-N-1-propenyl-6-(trimethylsilyl)benzamide]
inhibition at 0.1 ppm (0.1 ppm in minimal media agar): < 0%
inhibition at 1 ppm (1 ppm in minimal media agar): 26%
inhibition at 10 ppm (10 ppm in minimal media agar): 96%

CCNC(=O)c1c(Cl)ccc[c]1[Sn]([CH3])([CH3])[CH3] [Example 115, 2-Chloro-N-ethyl-6-(trimethylstannyl)benzamide]
In vitro (ppm) 0.1, Percent Inhibition (0.1 ppm in minimal media agar): 97%
In vitro (ppm) 1, Percent Inhibition (1 ppm in minimal media agar): 97%
In vitro (ppm) 10, Percent Inhibition (10 ppm in minimal media agar): 97%

CCNC(=O)c1c(F)cccc1[Si](C)(C)C [Example 117, N-Ethyl-2-fluoro-6-(trimethylsilyl)benzamide]
inhibition at 0.1 ppm (0.1 ppm in minimal media agar): 36%
inhibition at 1 ppm (1 ppm in minimal media agar): 94%
inhibition at 10 ppm (10 ppm in minimal media agar): 97%

C[Si](C)(C)c1ccc(F)c([Si](C)(C)C)c1C(=O)N1CCCC1 [Example 118, 1-[3-Fluoro-2,6-bis(trimethylsilyl)benzoyl]pyrrolidine]
inhibition at 0.1 ppm (0.1 ppm in minimal media agar): < 0%
inhibition at 1 ppm (1 ppm in minimal media agar): < 0%
inhibition at 10 ppm (10 ppm in minimal media agar): 38%

Cc1ccccc1NC(=O)c1c(Br)cccc1[Si](C)(C)C [Example 120, 2-Bromo-N-(2-methylphenyl)-6-(trimethylsilyl)benzamide]
inhibition at 0.1 ppm (0.1 ppm in minimal media agar): < 0%
inhibition at 1 ppm (1 ppm in minimal media agar): 26%
inhibition at 10 ppm (10 ppm in minimal media agar): 100%

Cc1ccccc1NC(=O)c1ccccc1[Si](C)(C)C [Example 121, N-(2-Methylphenyl)-2-(trimethylsilyl)benzamide]
inhibition at 0.1 ppm (0.1 ppm in minimal media agar): 4%
inhibition at 1 ppm (1 ppm in minimal media agar): 8%
inhibition at 10 ppm (10 ppm in minimal media agar): 31%

CCNC(=O)c1c(Cl)cccc1-c1ccc2ccccc2c1 [Example 122, 2-Chloro-N-ethyl-6-(2-naphthalenyl)benzamide]
inhibition at 0.1 ppm (0.1 ppm in minimal media agar): < 0%
inhibition at 1 ppm (1 ppm in minimal media agar): < 0%
inhibition at 10 ppm (10 ppm in minimal media agar): 67%

CCNC(=O)c1c(F)cccc1C1(C)CCCC1 [Example 123, N-Ethyl-2-fluoro-6-(1-methylcyclopentyl)benzamide]
inhibition at 0.1 ppm (0.1 ppm in minimal media agar): 11%
inhibition at 1 ppm (1 ppm in minimal media agar): 78%
inhibition at 10 ppm (10 ppm in minimal media agar): 89%

CCNC(=O)c1ccncc1[Si](C)(C)C [Example 124, N-Ethyl-3-(trimethylsilyl)-4-pyridinecarboxamide]
inhibition at 0.1 ppm (0.1 ppm in minimal media agar): < 0%
inhibition at 1 ppm (1 ppm in minimal media agar): < 0%
inhibition at 10 ppm (10 ppm in minimal media agar): 62%

CCN(Cc1ccco1)C(=O)c1c(Cl)cccc1[Si](C)(C)C [Example 125, 2-Chloro-N-ethyl-N-(2-furylmethyl)-6-(trimethylsilyl)benzamide]
inhibition at 0.1 ppm (0.1 ppm in minimal media agar): < 0%
inhibition at 1 ppm (1 ppm in minimal media agar): < 0%
inhibition at 10 ppm (10 ppm in minimal media agar): 89%

CC(C)N(C(=O)c1c(Cl)cccc1[Si](C)(C)C)C(C)C [Example 126, 2-Chloro-N,N-bis(1-methylethyl)-6-(trimethylsilyl)benzamide]
inhibition at 0.1 ppm (0.1 ppm in minimal media agar): 15%
inhibition at 1 ppm (1 ppm in minimal media agar): 4%
inhibition at 10 ppm (10 ppm in minimal media agar): 93%

CCN(COC)C(=O)c1c(C)cccc1[Si](C)(C)C [Example 127, N-Ethyl-N-(methoxymethyl)-2-methyl-6-(trimethylsilyl)benzamide]
inhibition at 0.1 ppm (0.1 ppm in minimal media agar): < 0%
inhibition at 1 ppm (1 ppm in minimal media agar): 21%
inhibition at 10 ppm (10 ppm in minimal media agar): 74%

CCOCCN(CC)C(=O)c1c(Cl)cccc1[Si](C)(C)C [Example 128, 2-Chloro-N-(2-ethoxyethyl)-N-ethyl-6-(trimethylsilyl)benzamide]
inhibition at 0.1 ppm (0.1 ppm in minimal media agar): 4%
inhibition at 1 ppm (1 ppm in minimal media agar): 8%
inhibition at 10 ppm (10 ppm in minimal media agar): 50%

C[Si](C)(C)c1cccc(Cl)c1C(=O)NC1CCCCC1 [Example 129, 2-Chloro-N-cyclohexyl-6-(trimethylsilyl)benzamide]
inhibition at 0.1 ppm (0.1 ppm in minimal media agar): 9%
inhibition at 1 ppm (1 ppm in minimal media agar): 35%
inhibition at 10 ppm (10 ppm in minimal media agar): 26%

CC1CCCC(C)N1C(=O)c1c(Cl)cccc1[Si](C)(C)C (stereo not drawn) [Example 131, N-[2-Chloro-6-(trimethylsilyl)benzoyl]-2,6-dimethylpiperidine]
inhibition at 0.1 ppm (0.1 ppm in minimal media agar): < 0%
inhibition at 1 ppm (1 ppm in minimal media agar): 6%
inhibition at 10 ppm (10 ppm in minimal media agar): 3%

C[Si](C)(C)c1cccc(Cl)c1C(=O)NCc1ccccn1 [Example 135, 2-Chloro-N-(2-pyridinylmethyl)-6-(trimethylsilyl)benzamide]
inhibition at 0.1 ppm (0.1 ppm in minimal media agar): 22%
inhibition at 1 ppm (1 ppm in minimal media agar): 17%
inhibition at 10 ppm (10 ppm in minimal media agar): 39%

COc1ccc(CNC(=O)c2c(Cl)cccc2[Si](C)(C)C)cc1 [Example 136, 2-Chloro-N-[(4-methoxyphenyl)methyl]-6-(trimethylsilyl)benzamide]
inhibition at 0.1 ppm (0.1 ppm in minimal media agar): 3%
inhibition at 1 ppm (1 ppm in minimal media agar): 26%
inhibition at 10 ppm (10 ppm in minimal media agar): 100%

C[Si](C)(C)c1cccc(Cl)c1C(=O)NCc1ccc([N+](=O)[O-])cc1 [Example 137, 2-Chloro-N-[(4-nitrophenyl)-methyl]-6-(trimethylsilyl)-benzamide]
inhibition at 0.1 ppm (0.1 ppm in minimal media agar): 17%
inhibition at 1 ppm (1 ppm in minimal media agar): 61%
inhibition at 10 ppm (10 ppm in minimal media agar): 100%

C[Si](C)(C)c1cccc(Cl)c1C(=O)NCc1cccs1 [Example 138, 2-Chloro-N-(2-thienylmethyl)-6-(trimethylsilyl)benzamide]
inhibition at 0.1 ppm (0.1 ppm in minimal media agar): 14%
inhibition at 1 ppm (1 ppm in minimal media agar): 36%
inhibition at 10 ppm (10 ppm in minimal media agar): 97%

COc1cccc(CNC(=O)c2c(Cl)cccc2[Si](C)(C)C)c1 [Example 139, 2-Chloro-N-[(3-methoxyphenyl)methyl]-6-(trimethylsilyl)benzamide]
inhibition at 0.1 ppm (0.1 ppm in minimal media agar): 11%
inhibition at 1 ppm (1 ppm in minimal media agar): 53%
inhibition at 10 ppm (10 ppm in minimal media agar): 100%

COc1cc(CNC(=O)c2c(Cl)cccc2[Si](C)(C)C)cc(OC)c1OC [Example 140, 2-Chloro-N-[(3,4,5-trimethoxyphenyl)methyl]-6-(trimethylsilyl)benzamide]
inhibition at 0.1 ppm (0.1 ppm in minimal media agar): 19%
inhibition at 1 ppm (1 ppm in minimal media agar): 19%
inhibition at 10 ppm (10 ppm in minimal media agar): 81%

C[Si](C)(C)c1cccc(Cl)c1C(=O)NCc1cccc([N+](=O)[O-])c1 [Example 141, 2-Chloro-N-[(3-nitrophenyl)-methyl]-6-(trimethylsilyl)-benzamide]
inhibition at 0.1 ppm (0.1 ppm in minimal media agar): 19%
inhibition at 1 ppm (1 ppm in minimal media agar): 64%
inhibition at 10 ppm (10 ppm in minimal media agar): 100%

C[Si](C)(C)c1cccc(Cl)c1C(=O)NCC#N [Example 142, 2-Chloro-N-(cyanomethyl)-6-(trimethylsilyl)benzamide]
inhibition at 0.1 ppm (0.1 ppm in minimal media agar): < 0%
inhibition at 1 ppm (1 ppm in minimal media agar): < 0%
inhibition at 10 ppm (10 ppm in minimal media agar): 59%

CCN(CO)C(=O)c1c(C)cccc1[Si](C)(C)C [Example 143, N-Ethyl-N-(hydroxymethyl)-2-methyl-6-(trimethylsilyl)benzamide]
inhibition at 0.1 ppm (0.1 ppm in minimal media agar): 5%
inhibition at 1 ppm (1 ppm in minimal media agar): 13%
inhibition at 10 ppm (10 ppm in minimal media agar): 74%

C[Si](C)(C)c1cccc(Cl)c1C(=O)NCc1ccc2c(c1)OCO2 [Example 144, N-(1,3-benzodioxol-5-ylmethyl)-2-chloro-6-(trimethylsilyl)benzamide]
inhibition at 0.1 ppm (0.1 ppm in minimal media agar): < 0%
inhibition at 1 ppm (1 ppm in minimal media agar): 11%
inhibition at 10 ppm (10 ppm in minimal media agar): 59%

C[Si](C)(C)c1cccc(Cl)c1C(=O)NCc1ccncc1 [Example 145, 2-Chloro-N-(4-pyridinylmethyl)-6-(trimethylsilyl)benzamide]
inhibition at 0.1 ppm (0.1 ppm in minimal media agar): < 0%
inhibition at 1 ppm (1 ppm in minimal media agar): < 0%
inhibition at 10 ppm (10 ppm in minimal media agar): 27%
